Values of other authors as cited in patent US20220273584A1, “Film Formulation Comprising Carriers” (Klaria Pharma Holding AB, priority 2019, published 2022).

Details: at a concentration of 1-10%

**Q.** Which “permeability with porcine buccal epithelium” value does the source give for `CCCCCCCC/C=C\CCCCCCCC(=O)O` [Oleic acid, oleic acid] here?
**A.** Its value is “enhanced permeability”.
